Measured values published in paper PMC8070447, “Facile Synthesis and In Vitro Activity of N-Substituted 1,2-Benzisothiazol-3(2H)-ones against Dengue Virus NS2BNS3 Protease” (Pathogens, 2021).
Entries after “also recorded” stand apart in the source; their conditions may differ. Like-named read-outs stand apart in the source and are kept apart here.

Columns and labels:
[1] = molecular target: recombinant DENV2 NS2BNS3 protease (Dengue virus type 2, UniProt P29990); test: DENV2 NS2BNS3 protease inhibition assay (fluorogenic Bz-Nle-Lys-Arg-Arg-AMC substrate); type: biochemical; conditions: for inhibition at 50 µM: single dose 50 μM BIT, 100 nM protease
Experimental: The DENV NS2BNS3 activity inhibition assays were conducted in a 96-well plate containing 100 μL total reaction mixture. […] The reaction, in triplicates, was initiated by the addition of 100 nM DENV2 NS2B-NS3, and the release of fluorogenic AMC was measured at 60 s intervals using a spectrofluorometer for a maximum reaction time of 30 min. A solvent (DMSO) control was run for each assay plate by measuring the activity of DENV NS2BNS3 in the absence of BITs (DMSO control). The effect of background fluorescence was measured by preparing a calibration curve, which in turn was obtained by spiking known concentrations of free AMC in the same volume of the reaction mixtures containing the buffer, enzyme and compounds, and comparing the slope of this curve with that obtained using free AMC concentrations in reaction mixtures containing the buffer, enzyme, no compound and no substrate. The percentage of inhibition was calculated using the measurement of the initial rates of reaction in the presence (vexp) , or absence (vpro) of BIT according to the following formula: Inhibition (%)= 100−(vexp/vpro×100).
For the dose–response experiments, the assays were conducted as described above in the presence of threefold serial dilutions of BITs, ranging from 0.076–500 μM concentrations in DMSO. The final concentration of DMSO in each reaction mixture was less than 5%. IC50 values were obtained by plotting the residual activity of the DENV protease vs. log of the concentration of BITs by using GraphPad Prism v.7 software (San Diego, CA USA). For the positive control, aprotinin was used in a 5 μM concentration. All experiments were conducted in triplicates.
The synthesised BITs were tested for their inhibitory activity against the DENV2 NS2B/NS3 protease assay using the previously reported 96-well plate method. […] A reduction in the cleavage of the […] (AMC) measured in terms of the reduction of fluorescence was deemed to show inhibition of the protease and is reported as a percentage inhibition compared with the solvents’ control reaction. […] Aprotinine was used as the positive control, as described previously.
A threefold serial dilution of the selected BITs, ranging from 150 μM to about 200 nM, were screened in triplicate experiments, as described above. The kinetic data were obtained and the protease’s residual activities in the presence of the tested BITs were inserted into the dose–response model rooted in the GraphPad Prism software (version 7.0).
Figure 3 Inhibition and dose–response of DENV NS2BNS3 protease against the BITs. (A) A concentration of 50 μM BITs was incubated in the presence of 100 nM recombinant DENV2 NS2BNS3 protease and 5 µM tetrapeptide-AMC substrate in a Tris buffer at pH 9.5. The time-dependent release of fluorescent AMC tag was measured for 30 min and compared with the solvent control (−). […] Aprotinine (5 µM) was used as a positive control. Each bar represents a mean value of three replicates. […] The dashed horizontal line indicates the 50% activity level.

DENV2 [2] = test: DENV replication assay, viral RNA in supernatant by RT-qPCR; type: cell-based, DENV2 in Vero cells; conditions: 30 μM, Vero cells pre-incubated 1 h, supernatant after two days
Experimental: Based on the manufacturer’s manual, viral RNA was isolated from 200 µL cell culture supernatants using the Roche HP Viral Nucleic Acid Kit (Roche, Mannheim, Germany). Relative viral genome copy numbers were determined using 5 µL of the eluted RNA and RT-qPCR using the LightMix® Modular Dengue kit (TIB MOLBIOL, Germany) in combination with the LightCycler RNA Process Control Kit (Roche, Mannheim, Germany). All reactions were performed in triplicates on Roche LightCycler96 or Roche LightCycler480 II qPCR machines (Roche, Mannheim, Germany). The relative RNA concentration was determined using an RNA standard curve and the respective cycler software. The quality of the RT-qPCRs was ensured by following the Minimum Information for Publication of Quantitative […] Experiments guidelines, i.e., the recursion coefficient of the relative standard curve (r^2) was >0.95, and the triplicate assays with a standard deviation of >0.5 were excluded from the analyses. The resulting genome copy numbers were expressed as genome copies per millilitre of the cell culture supernatants. The statistical significance of the reduction in viral titres was calculated using Student’s t-test by comparing the viral load of a single compound with the DMSO control.
The BITs were tested for cytotoxicity in the Vero cells before their evaluation in cell culture assays (Figure S1). […] The BITs showing weaker DENV2 NS2BNS3 protease activity in the biochemical assay were excluded in the in vitro evaluations. […] All infections were performed in triplicate. After two days, the cellular supernatants were collected and the viral RNAs were isolated and quantified using real-time quantitative polymerase chain reaction (RT-qPCR).
(§1) (A) Vero cells were infected with DENV2 and incubated in the presence of the compounds. After incubation, viral RNA was isolated and quantified using RT-qPCR. (B) Viral infectivity of the compounds 5m and 5n was determined using immunofluorescence (IF) staining.

DENV2 [3] = test: Viral infectivity by immunofluorescence staining of Vero cells infected with supernatants; type: cell-based, DENV2 in Vero cells
Experimental: The inhibition of viral replication was analysed using immunofluorescence staining. Vero cells were preincubated with selected BITs at 30 μM. The cells were subsequently infected with DENV-2 (multiplicity of infection (MOI) of 0.5). Cellular supernatants were collected after 2 days, centrifuged at 2000 rpm for 5 min to remove the detached cells, and titrated on Vero cells. These cells were fixed with 4% paraformaldehyde 3 days after infection. We performed immunofluorescence staining to visualise the infected cells with monoclonal anti-DENV-2 E antibodies. Bound antibodies were detected with a Cy3-conjugated donkey anti-mouse antibody (Dianova, Hamburg, Germany) (1:500). Stained infected cells were counted using a fluorescence microscope, and the viral titres were calculated. The experiment was performed in triplicates. The statistical significance of the reduction of infected cells was calculated using Student’s t-test by comparing numbers of infected cells incubated with a compound with the DMSO control.
To further analyse whether the compounds 5m and 5n suppressed the viral gene infectivity, Vero cells were pretreated with the compounds and subsequently infected with DENV2 for two days. Cellular supernatants were uses to infect the Vero cells. After two additional days, the infected cells were visualised using immunofluorescence with anti-DENV antibodies. The stained cells were counted (Figure 5).
as §1

[4] = Vero cells pretreated, DENV2, immunofluorescence

recombinant DENV2 NS2BNS3 protease, sequence (P29990 1398-1437): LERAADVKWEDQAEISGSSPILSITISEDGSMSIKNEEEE
recombinant DENV2 NS2BNS3 protease, sequence (P29990 1476-1653): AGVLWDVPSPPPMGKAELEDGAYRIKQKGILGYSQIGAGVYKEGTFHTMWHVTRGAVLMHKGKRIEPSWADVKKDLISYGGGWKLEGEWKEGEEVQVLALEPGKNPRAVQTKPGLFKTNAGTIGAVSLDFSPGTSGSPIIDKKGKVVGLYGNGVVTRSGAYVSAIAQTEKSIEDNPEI

In the case of `Cc1cc([N+](=O)[O-])ccc1-n1sc2ccccc2c1=O` [Compound 5j, 2-(2-Methyl-4-nitrophenyl)benzo[d]isothiazol-3(2H)-one], the IC50 [1] is reported as 2.56 ± 1.03 µM, the inhibition at 50 µM [1] is reported as greater than 90% and the “suppression of DENV replication (viral RNA, RT-qPCR)” value (“suppression of DENV replication” for short) (DENV2 [2]) is reported as “did not show any activity against DENV2”. It also gave a melting point of 135 to 138 °C.

`O=c1c2ccccc2sn1-c1ccccc1[N+](=O)[O-]` [Compound 5h, 2-(2-Nitrophenyl)benzo[d]isothiazol-3(2H)-one] showed an IC50 [1] of 41.8 ± 1.17 µM, an inhibition at 50 µM [1] of roughly 70% and a melting point of 199 to 200 °C.

Molecule `COc1ccc(-n2sc3ccccc3c2=O)cc1` [Compound 5o, 2-(4-Methoxyphenyl)benzo[d]isothiazol-3(2H)-one] has an IC50 [1] of 26.5 ± 4.32 µM and an inhibition at 50 µM [1] of 58%.

Molecule `O=c1c2ccccc2sn1-c1ccccc1O` [Compound 5l, 2-(2-Hydroxyphenyl)benzo[d]isothiazol-3(2H)-one] has an IC50 [1] of 6.66 ± 2.17 µM, an inhibition at 50 µM [1] of no less than 90% and a melting point of 198 to 200 °C.

`O=c1c2ccccc2sn1-c1ccc([N+](=O)[O-])cc1` [Compound 5i, 2-(4-Nitrophenyl)benzo[d]isothiazol-3(2H)-one] gave a melting point of 126 to 129 °C.

Work on `CCCCc1ccc(-n2sc3ccccc3c2=O)cc1` [Compound 5g, 2-(4-Butylphenyl)benzo[d]isothiazol-3(2H)-one] yielded a melting point of 168 to 172 °C.

In the case of `O=c1c2ccccc2sn1-c1ccccc1Cl` [Compound 5m, 2-(2-Chlorophenyl)benzo[d]isothiazol-3(2H)-one], the IC50 [1] is reported as 2.01 ± 0.98 µM, the inhibition at 50 µM [1] is reported as greater than 90% and the “suppression of DENV replication” value (DENV2 [2]) is reported as “able to suppress DENV replication at a significant level; also recorded: inhibited DENV replication”. For the same molecule, the “suppression of DENV replication” value (DENV2 [2]; listed as 2-(2-chlorophenyl)benzo[d]isothiazol-3(2H)-one) was “could suppress DENV replication”, the “reduction of viral infectivity” value (DENV2 [3]) was 1 log value and the “reduction of viral infectivity” value (DENV2 [3]; [4]) was 1.4 orders of magnitude. The “reduction of viral infectivity (in words)” value (from here on “reduction … (in words)”) (DENV2 [3]; [4]) was “inhibited DENV replication and viral infectivity” and the “reduction … (in words)” value (DENV2 [3]; Vero cells pretreated, DENV2, immunofluorescence, listed as 2-(2-chlorophenyl)benzo[d]isothiazol-3(2H)-one) was “could suppress DENV replication and virus infectivity”.

For `O=c1c2ccccc2sn1-c1c(Cl)cccc1Cl` [Compound 5n, 2-(2,6-Dichlorophenyl)benzo[d]isothiazol-3(2H)-one], the IC50 [1] was 5.28 ± 1.89 µM, the inhibition at 50 µM [1] was greater than 90% and the “suppression of DENV replication” value (DENV2 [2]) was “able to suppress DENV replication at a significant level”. For the same molecule, the “suppression of DENV replication” value (DENV2 [2]; listed as 2-(2,6-dichlorophenyl)benzo[d]isothiazol-3(2H)-one) was “could suppress DENV replication”, the “reduction … (in words)” value (DENV2 [3]; [4]) was “about sixfold” and the “reduction … (in words)” value (DENV2 [3]; Vero cells pretreated, DENV2, immunofluorescence, listed as 2-(2,6-dichlorophenyl)benzo[d]isothiazol-3(2H)-one) was “could suppress DENV replication and virus infectivity”. It also gave a melting point of 188 to 190 °C.

Work on `O=c1c2ccccc2sn1-c1ccc(Br)cc1` [Compound 5k, 2-(4-Bromophenyl)benzo[d]isothiazol-3(2H)] yielded an IC50 [1] of 8.24 ± 1.16 µM, an inhibition at 50 µM [1] of 80% and a melting point of 138 to 140 °C.
